# Data as given in patent US4767624A, “Decubital remedy” (priority 1985, dated 1988).
# Read-outs that look alike come from different tables or passages of the source.
# Columns and labels:
# [1] = Blepharo-irritation; assay type: in vivo; conditions: 1% in squalane
# [2] = tested on: Wistar rats; assay: Subacute oral toxicity, rats; assay type: in vivo; conditions: oral, 40, 200 and 1,000 mg/kg/day, 5 weeks
# Description: (§1) Ubidecarenone was continuously and orally administered to male and female Wistar rats at doses of 40, 200 and 1,000 mg/kg/day for 5 weeks and to male and female rabbits at doses of 60 and 600 mg/kg/day for 23 days.
# [3] = Stability upon cutaneous administration; assay type: physicochemical
# [4] = tested on: heart muscle; conditions: ischemic state; cited from earlier work
# [5] = Phototoxicity; assay type: in vivo; conditions: 1% and 10% in squalane
# [6] = tested on: skin; assay: Primary cutaneous irritation; assay type: in vivo
# [7] = cited from earlier work
# [8] = Challenge (Adjuvante & patch method); assay type: in vivo; conditions: induction 5% acetone
# Text: Challenge Induction: 5% acetone
# (Adjuvante & patch method)
# [9] = tested on: skin; assay: Cumulative irritation; assay type: in vivo; conditions: 1% in squalane
# [10] = tested on: rabbits; assay: Subacute oral toxicity, rabbits; assay type: in vivo; conditions: 60 and 600 mg/kg/day, 23 days
# Description: as §1
# [11] = Optical challenge (Adjuvante & strip method); assay type: in vivo; conditions: induction 10% acetone
# Text: |(Adjuvante & strip method)
# [12] = tested on: radiation dermatitis or radiation ulcers; conditions: previous trial use, publications (1) and (2); cited from earlier work
# [13] = tested on: skin; assay: Patch test; assay type: in vivo; conditions: 1% in squalane
smiles,measurement,setting,value
COC1=C(OC)C(=O)C(C/C=C(\C)CC/C=C(\C)CC/C=C(\C)CC/C=C(\C)CC/C=C(\C)CC/C=C(\C)CC/C=C(\C)CC/C=C(\C)CC/C=C(\C)CCC=C(C)C)=C(C)C1=O [Ubidecarenone],"Blepharo-irritation, conclusion",[1],low blepharo-irritation
same,"difference from controls in general conditions, blood test, urine test and morphological observation",[2],Neither rats nor rabbits developed any difference compared with their respective controls
same,stability upon cutaneous administration,[3],good stability
same,damage of ischemic cardiac muscular tissue,[4],reduce the damage
same,percent oxygen utilization in heart muscle,[4],improve the percent oxygen utilization in heart muscle
same,"Phototoxicity, conclusion",[5],low phototoxicity
same,Primary cutaneous irritation,[6]; 1% in squalane,0.1
same,"Primary cutaneous irritation, conclusion",[6]; 1% in squalane,low skin irritation
same,irritation to the skin,"[6]; cutaneous administration, summary of Table 1",low irritation to the skin
same,solubility,[7]; methanol,scarcely soluble
same,solubility,[7]; oil,oil-soluble
same,solubility,[7]; water,scarcely soluble
same,Challenge,[8]; 1% in acetone,0/10
same,"Challenge, conclusion",[8]; 5% and 1% in acetone,low challenge
same,Challenge,[8]; 5% in acetone,0/10
same,Cumulative irritation,[9],0.3
same,"Cumulative irritation, conclusion",[9],low skin irritation
same,"difference from controls in general conditions, blood test, urine test and morphological observation",[10],Neither rats nor rabbits developed any difference compared with their respective controls
same,Optical challenge,[11]; 0.5% in acetone,0/5
same,"Optical challenge, conclusion",[11]; 0.5-10% in acetone,low optical challenge
same,Optical challenge,[11]; 1% in acetone,0/5
same,Optical challenge,[11]; 2% in acetone,0/5
same,Optical challenge,[11]; 5% in acetone,0/5
same,Optical challenge,[11]; 10% in acetone,0/5
same,effectiveness in radiation dermatitis or radiation ulcers,[12],superb effectiveness
same,Patch test,[13],0/54
same,"Patch test, conclusion",[13],low skin irritation
